This is an account of results in patent US20230285598A1, “SULFOXONIUM YLIDE DERIVATIVES AS PROBES FOR CYSTEINE PROTEASE” (Takeda Pharmaceutical Company Limited, priority 2018, published 2023).

The target of assay [1] is cathepsin X (Mus musculus, UniProt Q9WUU7). Kind of assay: Probe labeling of living RAW264.7 cells, in-gel fluorescence. The format is cell-based. More on the design: protein lysates prepared from RAW264.7 cells; host or cells: RAW264.7. Particulars: Example 8; 0.1-5 µM for 2 hours. How it is done:
AW cells or MDA-MB-231 ^HM cells were plated in 12-well plates. Where indicated, MDV-590 or vehicle was added at 10 µM from a 10 mM DMSO stock for overnight incubation. When the cell density reached 80%, the indicated probes were added at the indicated concentrations from a 1000x DMSO stock and allowed to incubate for the indicated time. Media was then removed and replaced with PBS. The cells were then scraped and transferred to tubes, and lysis and SDS-PAGE analysis were carried out as above, except skipping the probe addition step. […]
In Example 8, sulfoxonium ylide probes as prepared in accordance with Example 1 were applied to live RAW264.7 cells for two hours, in order to examine the potency and permeability of the sulfoxonium ylide probe series in living cells, and the results compared to BMV109.
The sulfoxonium ylide probes (and BMV109) were each added with increasing probe concentrations of 0.1 µM, 0.5 µM, 1 µM and 5 µM for 2 hours. […]

Assay [2] has as its target cathepsin X (Homo sapiens, UniProt Q9UBR2). In words: Labeling of human oral squamous cell carcinoma tissue lysates, in-gel fluorescence. Particulars: °C5 µM for 20 minutes; 80 µg protein. The format is biochemical. More on the design: Tissues were lysed by sonication in citrate buffer and supernatants were cleared by centrifugation; from tissue; host or cells: human oral squamous cell carcinoma biopsies and patient-matched normal oral mucosa. The source says: To investigate the ability of sCy5-,Nle-SY to label cathepsin X in human tissues, biopsies that were obtained from patients with oral squamous cell carcinoma were used. Normal oral mucosal tissues that were biopsied from the contralateral side of the tongues of the same patients were used as controls.
The human oral squamous cell carcinomas or patient-matched normal oral mucosa were biopsied according to protocols approved by the Institutional Review Board at the New York University Oral Cancer Centre. Biopsies were immediately snap-frozen and stored at -80° C. Tissues were lysed by sonication in citrate buffer and supernatants were cleared by centrifugation. Total protein concentration was assessed by BCA assay and 80 µg were labelled with Cy5-Nle-SY: The lysates prepared from the oral squamous cell carcinoma tissue or patient-matched normal oral mucosa were incubated with sCy5-Nle-SY (°C5 µM for 20 minutes) and labeling was analyzed by in-gel fluorescence (fluorescent SDS-PAGE). Samples were also immunoblotted to determine total cathepsin X expression (n=10). Additionally, the sCy5-Nle-SY-labeled cancer lysates were immunoprecipitated with a cathepsin X-specific antibody to verify the identity of the labeled protein.

cathepsin X (Homo sapiens, UniProt Q9UBR2), sequence (Q9UBR2 62-303): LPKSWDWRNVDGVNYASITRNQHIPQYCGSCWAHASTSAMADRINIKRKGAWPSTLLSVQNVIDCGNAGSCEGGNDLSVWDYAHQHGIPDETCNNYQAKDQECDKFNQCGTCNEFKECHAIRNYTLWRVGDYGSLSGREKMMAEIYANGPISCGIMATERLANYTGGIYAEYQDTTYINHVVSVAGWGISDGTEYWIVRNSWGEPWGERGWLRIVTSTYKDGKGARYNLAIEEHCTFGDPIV
cathepsin X (Mus musculus, UniProt Q9WUU7), sequence (Q9WUU7 64-306): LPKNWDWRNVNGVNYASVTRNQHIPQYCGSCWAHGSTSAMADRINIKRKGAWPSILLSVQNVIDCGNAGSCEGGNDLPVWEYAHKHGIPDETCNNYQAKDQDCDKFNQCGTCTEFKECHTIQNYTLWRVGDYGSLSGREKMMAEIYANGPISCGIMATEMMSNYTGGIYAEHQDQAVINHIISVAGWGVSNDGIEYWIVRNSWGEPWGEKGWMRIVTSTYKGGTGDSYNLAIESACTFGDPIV

For the compound `CCCC[C@H](NC(=O)CCCCCN1/C(=C/C=C/C=C/C2=[N+](CC)c3ccc(S(=O)(=O)[O-])cc3C2(C)C)C(C)(C)c2cc(S(=O)(=O)O)ccc21)C(=O)C=S(C)(C)=O` [sCy5-Nle-SY], the “cathepsins labeled in live RAW264.7 cells” value at cathepsin X [1] was “labeled cathepsin X and S to similar extents and with similar potency”. At cathepsin X [2], the “labeling of cathepsin X in human oral squamous cell carcinoma lysates” value is “clear and selective labeling of cathepsin X was observed”.
